Test results taken from US9242998B2, “Tetracyclic heterocycle compounds and methods of use thereof for the treatment of hepatitis C” (priority 2013, dated 2016).

Experiments:
HCV genotype 1b replicon = test: HCV replicon assay, genotype 1b (cell ELISA for replicon-encoded NS3/4A); type: cell-based; conditions: Hepatitis C virus, 96 h, read-out: 1b IC50
Protocol: (§1) Measurement of inhibition by compounds was performed using the HCV replicon system. Several different replicons encoding different HCV genotypes or mutations were used. In addition, potency measurements were made using different formats of the replicon assay, including different ways of measurements and different plating formats. See Jan M. Vrolijk et al., A replicons-based bioassay for the measurement of interferons in patients with chronic hepatitis C, 110 J. V[…] 201 (2003); Steven S. Carroll et al., Inhibition of Hepatitis C Virus RNA Replication by 2′-Modified Nucleoside Analogs, 278(14) J. BIOLOGICAL CHEMISTRY 11979 (2003). However, the underlying principles are common to all of these determinations, and are outlined below.
(§2) Stable neomycin phosphotransferase encoding replicons-harboring cell lines were used, so all cell lines were maintained under G418 selection prior to the assay. Potency was determined using a cell ELISA assay with an antibody to the replicons encoded NS3/4a protease. See Caterina Trozzi et al., In Vitro Selection and Characterization of Hepatitis C Virus Serine Protease Variants Resistant to an Active-Site Peptide Inhibitor, 77(6) J. Virol. 3669 (2003). To initiate an assay, replicon cells were plated in the presence of a dilution series of test compound in the absence of G418. Typically, the assays were performed in a 96-well plate formate for manual operation, or a 384-well plate format for automated assay. Replicon cells and compound were incubated for 96 hours. At the end of the assay, cells were washed free of media and compound, and the cells were then lysed. RNA was quantified indirectly through detection of replicon-encoded NS3/4A protein levels, through an ELISA-based assay with an antibody specific for NS3/4A. IC50 determinations were calculated as a percentage of a DMSO control by fitting the data to a four-parameter fit function and the data obtained is provided in the table below.
(§3) Data for selected compounds of the present invention was obtained for genotypes 1a and 1b using this method and is provided in the table below: […]

HCV genotype 1a replicon = test: HCV replicon assay, genotype 1a (cell ELISA for replicon-encoded NS3/4A); type: cell-based; conditions: Hepatitis C virus, 96 h, read-out: 1a IC50
Protocol: as §1, §2, §3

CNC(=O)c1c(-n2cnc(C)n2)oc2cc(N(C)S(C)(=O)=O)c(-c3ccc4c(n3)-c3cc5c(F)cccc5n3CO4)cc12 [Compound 41]
IC50 (HCV genotype 1b replicon): 22 nM
IC50 (HCV genotype 1a replicon): 82 nM

CNC(=O)c1c(C2CC2(F)F)oc2cc(N(C)S(C)(=O)=O)c(-c3ccc4c(n3)-c3cc5c(F)cccc5n3CO4)cc12 (stereo not shown) [Compound 50, 2-(2,2-difluorocyclopropyl)-5-(11-fluoro-6H-pyrido[2′,3′:5,6][1,3]oxazino[3,4-a]indol-2-yl)-N-methyl-6-(N-methylmethylsulfonamido)benzofuran-3-carboxamide]
IC50 (HCV genotype 1b replicon): 38 nM
IC50 (HCV genotype 1a replicon): 22 nM
